According to ChEMBL document CHEMBL1152406, “Conformationally restricted homotryptamines. Part 5: 3-(trans-2-aminomethylcyclopentyl)indoles as potent selective serotonin reuptake inhibitors” (Bioorg Med Chem Lett, 2009):
Active and inactive are the calls of the source. The calls are words filed in the database; no cut-off is given here.

Assays:
[1] = biological target: Sodium-dependent serotonin transporter (Homo sapiens, UniProt P31645); assay: Displacement of [125I]RTI-55 from human SERT expressed in HEK293 cells; format: cell-based
Sequence of Sodium-dependent serotonin transporter (P31645 whole entry): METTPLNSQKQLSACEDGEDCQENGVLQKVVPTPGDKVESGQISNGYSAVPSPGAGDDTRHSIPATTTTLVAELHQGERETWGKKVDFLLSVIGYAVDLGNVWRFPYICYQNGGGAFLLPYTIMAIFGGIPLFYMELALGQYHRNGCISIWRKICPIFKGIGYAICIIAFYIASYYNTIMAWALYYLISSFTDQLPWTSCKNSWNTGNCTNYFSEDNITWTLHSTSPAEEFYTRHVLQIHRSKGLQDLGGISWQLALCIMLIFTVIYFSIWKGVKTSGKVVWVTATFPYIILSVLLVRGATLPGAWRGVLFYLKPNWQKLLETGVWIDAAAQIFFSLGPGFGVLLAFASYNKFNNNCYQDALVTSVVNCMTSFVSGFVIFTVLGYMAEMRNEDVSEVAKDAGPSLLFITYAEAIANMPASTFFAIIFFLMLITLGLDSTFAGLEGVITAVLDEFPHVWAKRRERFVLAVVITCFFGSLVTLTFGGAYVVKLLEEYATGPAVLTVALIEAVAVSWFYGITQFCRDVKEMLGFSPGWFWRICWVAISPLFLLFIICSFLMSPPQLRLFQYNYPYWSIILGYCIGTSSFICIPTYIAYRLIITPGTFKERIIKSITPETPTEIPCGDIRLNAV

[2] = biological target: Sodium-dependent dopamine transporter (Homo sapiens, UniProt Q01959); assay: Displacement of [125I]RTI-55 from human DAT expressed in HEK293 cells; format: cell-based
Sequence of Sodium-dependent dopamine transporter (Q01959 whole entry): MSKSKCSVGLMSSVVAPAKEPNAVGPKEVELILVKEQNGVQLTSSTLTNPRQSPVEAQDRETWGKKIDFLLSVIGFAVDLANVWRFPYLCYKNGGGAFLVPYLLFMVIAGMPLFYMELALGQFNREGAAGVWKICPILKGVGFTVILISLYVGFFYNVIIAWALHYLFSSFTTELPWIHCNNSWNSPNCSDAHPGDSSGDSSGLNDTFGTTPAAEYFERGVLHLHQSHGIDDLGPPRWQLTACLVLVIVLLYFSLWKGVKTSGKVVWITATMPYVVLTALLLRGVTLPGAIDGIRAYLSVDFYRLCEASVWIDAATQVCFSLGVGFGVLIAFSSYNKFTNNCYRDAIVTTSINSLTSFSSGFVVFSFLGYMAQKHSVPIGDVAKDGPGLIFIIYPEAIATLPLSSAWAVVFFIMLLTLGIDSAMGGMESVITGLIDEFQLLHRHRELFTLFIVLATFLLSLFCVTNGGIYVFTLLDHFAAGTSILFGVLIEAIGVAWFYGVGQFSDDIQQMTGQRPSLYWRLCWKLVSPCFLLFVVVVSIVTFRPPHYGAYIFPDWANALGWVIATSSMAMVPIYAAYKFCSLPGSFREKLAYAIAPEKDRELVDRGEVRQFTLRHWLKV

[3] = biological target: Sodium-dependent noradrenaline transporter (Homo sapiens, UniProt P23975); assay: Displacement of [125I]nisoxetine from human NET expressed in HEK293 cells; format: cell-based
Sequence of Sodium-dependent noradrenaline transporter (P23975 whole entry): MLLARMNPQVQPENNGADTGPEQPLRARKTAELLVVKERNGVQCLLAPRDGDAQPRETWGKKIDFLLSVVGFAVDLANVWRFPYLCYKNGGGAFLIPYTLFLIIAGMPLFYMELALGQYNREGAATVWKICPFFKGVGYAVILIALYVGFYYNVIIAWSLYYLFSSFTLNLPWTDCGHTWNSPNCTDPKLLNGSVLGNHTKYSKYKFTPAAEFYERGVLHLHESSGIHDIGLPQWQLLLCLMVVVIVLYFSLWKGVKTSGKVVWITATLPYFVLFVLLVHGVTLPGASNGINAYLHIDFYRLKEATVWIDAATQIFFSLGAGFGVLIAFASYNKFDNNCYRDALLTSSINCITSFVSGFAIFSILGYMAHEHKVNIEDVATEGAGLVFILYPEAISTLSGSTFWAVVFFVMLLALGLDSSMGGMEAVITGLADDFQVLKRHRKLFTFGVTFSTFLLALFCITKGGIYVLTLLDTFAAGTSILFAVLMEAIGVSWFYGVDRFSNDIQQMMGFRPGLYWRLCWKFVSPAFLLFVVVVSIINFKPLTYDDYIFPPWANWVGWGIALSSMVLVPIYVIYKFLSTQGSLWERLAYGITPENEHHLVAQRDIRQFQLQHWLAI

Rattus norvegicus [4] = assay: Increase in extracellular serotonin level in frontal cortex of awake and free moving rat at 1 mg/kg, po by microdialysis relative to basal level; format: functional
Rattus norvegicus [5] = assay: Increase in extracellular serotonin level in frontal cortex of awake and free moving rat at 5 mg/kg, po by microdialysis relative to basal level; format: functional
Rattus norvegicus [6] = assay: Increase in extracellular serotonin level in frontal cortex of awake and free moving rat at 0.3 to 3 mg/kg, po by microdialysis; format: functional, organism-based

N#Cc1ccc2[nH]cc([C@H]3CCC[C@@H]3CN3CCCC3)c2c1 (racemic)
IC50 [1]: 22 nM

CN(C)C[C@H]1C[C@@H]1c1c[nH]c2ccc(C#N)cc12
IC50 [1]: 0.36 nM | IC50 [2]: 4200 nM | IC50 [3]: 9200 nM

CCNC[C@H]1CCC[C@@H]1c1c[nH]c2ccc(C#N)cc12 (racemic)
IC50 [1]: 170 nM

CN(C)C[C@@H]1CCC[C@@H]1c1c[nH]c2ccc(C#N)cc12
IC50 [1]: 1.2 nM

CN(C)C[C@H]1CCC[C@@H]1c1c[nH]c2ccc(C#N)cc12 [listing 1 of 2 here]
Activity (Rattus norvegicus [4]): >300% | Activity (Rattus norvegicus [5]): >300% | IC50 [1]: 0.13 nM | IC50 [2]: 690 nM | IC50 [3]: 7900 nM

CN(C)C[C@H]1CCC[C@@H]1c1c[nH]c2ccc(C#N)cc12 (racemic)
IC50 [1]: 0.32 nM

CN(C)C[C@H]1CCC[C@H]1c1c[nH]c2ccc(C#N)cc12
IC50 [1]: 130 nM

CNC[C@H]1CCC[C@@H]1c1c[nH]c2ccc(C#N)cc12 (racemic)
IC50 [1]: 7 nM

CCN(CC)C[C@H]1CCC[C@@H]1c1c[nH]c2ccc(C#N)cc12 (racemic)
IC50 [1]: 240 nM

CN(C)C[C@@H]1CCC[C@@H]1c1c[nH]c2ccc(C#N)cc12 (racemic)
IC50 [1]: 2.6 nM

CN(C)C[C@H]1CCC[C@@H]1c1c[nH]c2ccc(C#N)cc12 [listing 2 of 2 here]
Activity (Rattus norvegicus [6]): Active

CCN(C)C[C@H]1CCC[C@@H]1c1c[nH]c2ccc(C#N)cc12 (racemic)
IC50 [1]: 10 nM

CN(C)C[C@@H]1CCC[C@H]1c1c[nH]c2ccc(C#N)cc12
IC50 [1]: 58 nM

CN(Cc1ccccc1)C[C@H]1CCC[C@@H]1c1c[nH]c2ccc(C#N)cc12 (racemic)
IC50 [1]: 85 nM
